Patent US12397041B2, “Vasoactive intestinal peptide release from microparticles” (UNIVERSITY OF PITTSBURGH—OF THE COMMONWEALTH SYSTEM OF …, priority 2009, dated 2025)
“Also recorded” adds a separate entry of the source. Ends that are not written are not given here.

Key:
dendritic cells = assay: CCL22 production by dendritic cells (ELISA); type: cell-based, murine; details: LPS-matured DCs, soluble VIP
Experimental: Dendritic cells were isolated from murine bone marrow and cultured following standard procedures.
(§1) In the first two experiments, both GM-CSF and IL-4 were added to DC media (modified RPMI 1640) of bone marrow cell cultures during media changes on Days 0, 3 and 6. In the third experiment, the IL-4 was purposely omitted and GM-CSF was added in 5× concentration. On Day 6, CD11c+ DC cells were isolated using MACS cell sorting beads and plated in a 24-well plate at 100,000 cells/well. Five different groups of four wells each were analyzed and received treatment. […] A mature DC control group received only LPS. Three different groups were matured with LPS and received different concentrations of either soluble VIP or releasates of VIP microparticles or blank microparticles (using the 12.6 kDa polymer).
Dose Response Protocol: Soluble VIP was added in concentrations of 10^−6 M, 10^−8 M, and 10^−9 M to both immature DC groups and DCs matured with LPS. Twelve different groups were matured with LPS and received different concentrations of either blank porous, blank nonporous, VIP porous, or VIP nonporous microparticles (of the 12.6 kDa polymer). Microparticles were added in concentrations of either 2.77 mg/mL, 1.39 mg/mL, and 0.277 mg/mL. In a second DC culture, the low concentration of microparticles was reduced to 0.0556 mg/mL. […]

[1] = test system: FoxP3, IL-10, RANKL, CCL-22 mRNA in periodontal tissues; assay: Real-time PCR of markers in periodontal tissues of diseased mice; type: in vivo, mouse; details: systemic injections at days −1, 7, 14, 21, 28
Experimental: To verify that Tregs are recruited toward microparticles that sustain release of CCL-22, formulations were administered into the periodontium of diseased mice. Briefly, mice were orally exposed to the periodontal pathogen A. actinomycetemcomitans (Aar) on day 0, and also received CCL-22 microparticles (CCL-22MPs) or blank (empty) microparticles (BlankMPs) in their periodontal pockets. Specifically, mice received microparticle injections at day −1, 10 and 20, mice treated with VIP injections received systemic injections at days −1, 7, 14, 21, 28. Untreated mice served as negative controls. At day 30, all mice were sacrificed and maxilla's were resected. […] FIG. 22A. […] Figure BIB. […] FIG. 22C.
In this experiment, artificial antigen presenting cells providing a CCL-22 controlled release formulation were injected into palatal gingival tissue of right molars of mice (n=3) at the times of −1, 10 and 20 days of periodontal infection. At 30 days, total RNA was extracted from periodontal tissues as previously described and analyzed for regulatory T-cell and periodontal disease factor. […]
Real-Time PCR Analysis. […] RealTime-PCR quantitative mRNA analyses will be done in a MiniOpticon system (BioRad, Hercules, CA), using SybrGreen Master Mix (Invitrogen), 100 nM specific primers, and 2.5 ng of cDNA in each reaction. […]

[2] = test system: mice infected with A. actinomycetemcomitans (periodontitis); assay: Mouse periodontitis model with CCL-22 microparticles / systemic VIP, alveolar bone resorption and Treg recruitment; type: in vivo
Experimental: To this end, B6 mice (n=6) were infected orally with the periodontal pathogen A. actinomycetemcomitans (Aa) and treated with microparticles containing CCL-22 (CCL-22MPs) or empty microparticles (BlankMPs) according to the schedule outlined above. Additionally vasoactive intestinal peptide (VIP) was administered intraperitoneally. Mice receiving only PBS and the thickener carboxymethyl cellulose served as controls (Untreated). Experimental treatments were administered in the periodontal pocket of the right maxilla while left maxillae were used as internal negative controls in each mouse. Alveolar bone loss was quantified as the area between the cementoenamel junction (CEJ) and the alveolar bone crest (ABC) FIG. 23, CEJ and FIG. 23A, ABC). Alveolar bone levels are shown on the left (internal control, FIG. 23A LEFT) and right (BlankMP treated, FIG. 23A RIGHT) maxilla.

FoxP3+CD4+ T-cells = assay: Chemotaxis of CD4+ T-cells through transwells toward treated DCs, FoxP3+ by flow cytometry; type: cell-based, mouse; details: LPS
Experimental: as §1
Preliminary Protocol: Soluble VIP was added to the third group in concentration of 2.5×10^−8 M. Ten milligrams of microparticles were first incubated for 4-6 hours in media and 250 μL of releasates were added to each well. […]
For chemotaxis studies, in the first two experiments, both GM-CSF and IL-4 were added to DC media (modified RPMI 1640) of bone marrow cell cultures during media changes on Days 0, 3 and 6. […] Five different groups of four wells each were analyzed and received treatment. […]
CD4+ T-cells were isolated from the spleen and lymph nodes of a mouse using Dynal beads following the lab protocol. […] T Cells that flowed through were analyzed for FoxP3+ expression using flow cytometry.

CD4+ T cells (CCR4) = assay: In vitro transwell migration assay toward CCL22; type: cell-based, murine; details: activated vs naïve CD4+ T cells
Excerpt: (* p<0.05, one-tailed Students ‘t’ test).
Simultaneously, the ability of CCL22 to attract murine T cells was examined. Expression of chemokine receptors for CCL22 (i.e., for example, the CCR4 receptor) are known to control the ability of cells to respond to CCL22 gradients. Moreover, there is evidence that only activated T cells express the CCR4 receptor. Baatar et al., Journal of Immunology 178: 4891-4900 (2007); Lim et al., Journal of Immunology 177:840-851 (2006); and Lee et al., Journal of Experimental Medicine 201:1037-1044 (2005); and FIG. 18A. […] FIG. 18B.

| Molecule | CCL-22 production relative to mature DC control group (dendritic cells) | endogenous CCL-22 production [1] | alveolar bone resorption / bone loss ([2]; MPs at day −1, 10, 20, VIP systemic IP, day 30, vs BlankMPs / negative controls) | Treg (FoxP3+ cell) recruitment to gingival / periodontal tissues ([2]; mouse, in vivo) | percent of FoxP3+ cells recruited by DCs (FoxP3+CD4+ T-cells; DC precursors cultured with IL-4 and GM-CSF, soluble VIP 2.5×10^−8 M or releasates) | percent of FoxP3+ cells recruited by DCs (FoxP3+CD4+ T-cells; absence of IL-4, 5× GM-CSF) | T cell migration towards a CCL22 gradient (CD4+ T cells (CCR4)) |
| --- | --- | --- | --- | --- | --- | --- | --- |
| vasoactive intestinal peptide (HSDAVFTDNYTRLRKQMAVKKYLNSILN; ends and bridges not checked; UniProt P01282 125-152, looked up) [VIP, neuropeptide of twenty-eight (28) amino acids in length originally isolated from the intestine] | similar | induced endogenous production of CCL-22 | significantly less alveolar bone resorption than BlankMPs | effectively induce Treg migration to periodontal tissues | recruited a higher percentage of FoxP3+ cells than DCs that only received LPS or releasates from blank particles | recruited the same percentage of FoxP3+ cells |  |
| CCL22: chemokine that binds the CCR4 receptor, involved in migration of regulatory T-cells (protein, UniProt O00626 25-93, looked up) C-C motif chemokine 22: GPYGANMEDSVCCRDYVRYRLPLRVVKHFYWTSDSCPRPGVVLLTFRDKEICADPRVPWVKMILNKLSQ |  |  |  |  |  |  | significantly greater migration of activated regulatory and effector CD4+ T cells; also recorded: activated T cells (both regulatory and effector cell populations), but not naïve T cells, migrated towards a CCL22 gradient |
